Experimental data reported in patent publication US20260306500A1, “METHOD OF INHIBITING ADENOSINE TRIPHOSPHATE SECRETION, METHOD OF INHIBITING HEPATIC STELLATE CELL ACTIVATION, METHOD OF DEACTIVATING HEPATIC STELLATE CELL, METHOD OF TREATING HEPATIC FIBROSIS, METHOD OF TREATING NON-ALCOHOLIC STEATOHEPATITIS, AND METHOD OF TREATING PSORIASIS” (Kurume University, priority 2023, published 2026).

Tests used:
[1] = test system: chromaffin granule membrane; assay: ATP transport (uptake of radiolabeled ATP) in chromaffin granule membrane vesicles; format: biochemical, cattle; details: role: inhibitor, 1 mM 3H-ATP
Protocol: Chromaffin granule membranes were prepared from adrenal glands collected from slaughtered cattle according to Reference A (Nathan Nelson et al., 1988, Chromaffin Granule Proton Pump, Methods in Enzymology, 157, 619-633). Chromaffin granule membranes prepared by sucrose density gradient centrifugation were suspended in 2 ml of SME buffer (20 mM MOPS-tris (pH 7.0), 0.3 M sucrose, 5 mM EDTA, 10 μg/ml leupeptin, and 10 μg/ml pepstatin)+25% glycerol, and the resulting suspension was aliquoted and stored at −80° C. Under these conditions, the ATP transport activity, the V-ATPase activity, and the catecholamine transport activity remain fully active for at least one year.
An ATP transport inhibition experiment for the chromaffin granule membrane was carried out according to Reference B (Yoshinori Moriyama et al., 2022, Is the vesicular nucleotide transporter a molecular target of eicosapentaenoic acid?, Frontiers in Pharmacology, 103389). About 20 μg of chromaffin granule membranes were added to 0.5 ml of measurement buffer (20 mM MOPS-tris (pH 7.0), 0.3 M sucrose, 5 mM potassium chloride, 5 mM magnesium acetate, 5 mM creatine phosphate, 10 units of creatine kinase, and 1 mM 3[H]-ATP [15 KBq/assay]), followed by incubation at 30° C. for 1 hour. Through a Millipore MCE membrane filter with a pore size […], 0.2 ml of the reaction liquid was filtered by suction. Thereafter, the filter was washed with 10 ml of 20 mM MOPS-tris (pH 7.0), 0.3 M sucrose, 5 mM potassium chloride, and 5 mM magnesium acetate, and dissolved in 10 ml of Clear-sol II (manufactured by Nacalai Tesque, Inc.). The radioactivity was then measured using a liquid scintillation counter (N=3).
The reaction was initiated by adding 50 mM ^3[H]-ATP to a final concentration of 1 mM. The 50 mM ^3[H]-ATP was prepared by mixing an ATP-tris solution (manufactured by Sigma-Aldrich) with [2,8-^3H]adenosine triphosphate tetrasodium salt (26.0 Ci/mmol) (manufactured by New England Nuclear). PEP was used as a test reagent, and pyruvic acid was used as a negative control. Five minutes before the addition of ATP, PEP or pyruvic acid, as a solution in 20 mM MOPS-tris (pH 7.0), 0.3 M sucrose, 5 mM potassium chloride, and 5 mM magnesium acetate, was added to the measurement liquid to a final PEP concentration of 0.02, 0.05, 0.1, 0.2, 0.4, or 1 mM, or to a final pyruvic acid concentration of 0.5 or 1 mM.
Chromaffin granule membrane vesicles were prepared in the same manner as in Example 5, and uptake of radiolabeled ATP into the vesicles was measured. Transport activity of catecholamine (dopamine) and ATP-dependent proton transport by V-ATPase were also measured in the same manner as in Example 5.

LX-2 cells = assay: ATP secretion from LX-2 cells; format: cell-based, human
Protocol: Cells of the immortalized human hepatic stellate cell line LX-2 (manufactured by Merck) was cultured in Dulbecco's modified Eagle's medium (DMEM, 4500 mg/l Glucose, D5796, manufactured by Sigma-Aldrich) supplemented with inactivated 2% fetal bovine serum (FBS), 10 IU/ml penicillin, and 10 IU/ml streptomycin in a T25 or T75 flask at 37° C. in 5% CO2.
LX-2 cells (2×10^6 cells per well) were seeded in a collagen-coated 6-well culture dish containing Dulbecco's modified Eagle's medium (manufactured by Sigma-Aldrich) supplemented with 10 IU/ml penicillin, […] 2% fetal bovine serum, and cultured in 5% CO2 at 37° C. After 3 days, the LX-2 cells were washed twice and preincubated in Krebs-Ringer buffer (10 mM HEPES-Tris, pH 7.4, 128 mM NaCl, 1.9 mM KCl, 1.2 mM KH2PO4, 1.3 mM MgSO4, 26 mM NaHCO3, 2.4 mM CaCl2, 10 mM glucose, 0.2% (w/v) bovine serum albumin) with or without 10 μM clodronate. The LX-2 cells were then stimulated with Krebs-Ringer buffer supplemented with ionomycin (manufactured by Cayman) regardless of whether clodronate was present or not. For the stimulation, 1 mM EGTA (manufactured by Dojindo) or 10 μM serotonin (5-HT, manufactured by Sigma-Aldrich) was used. The ATP concentration in the culture supernatant was measured in the same manner as in Example 6.
For an siRNA experiment, a TriFECTa (trademark) RNAi Kit (manufactured by Integrated DNA Technologies) was used. A scramble RNA (scRNA) as a control siRNA, or a VNUT-specific siRNA, was incubated with Lipofectamine 3000 reagent (manufactured by Invitrogen) in OptiMEM reduced-serum medium (#31985070, manufactured by Gibco) at room temperature for 15 minutes, and then added directly to the cultured cells. The LX-2 cells as the transfection mixture were plated, and then cultured for 48 hours. The base sequences of VNUT siRNA forward and VNUT siRNA reverse, used for the above kit, are shown in SEQ ID NOs: 1 and 2, respectively. A positive control for an endogenous gene (#51-01-08-02) and a negative control (#51-01-14-03) were used.

[2] = test system: human epidermal keratinocytes; assay: ATP secretion from human epidermal keratinocytes promoted by ionomycin; format: cell-based; details: 5 μM ionomycin as stimulant, keratinocytes
Protocol: Human epidermal keratinocytes (Cryopreserved HEK, Lot 1758, Cell Applications Inc.) were cultured using an Epivita Keratinocyte Growth Medium Kit according to the manufacturer's instructions. The procedure was as follows. A supplement medium was added to a hydrocortisone-containing basal medium included in the medium preparation kit to prepare a complete medium. The medium in the dish was removed by aspiration. The cells were washed with 5 ml of BSS (Gbco), and then the BSS was removed by aspiration. After addition of 5 to 6 ml of trypsin/EDTA solution (Gbco), the dish was incubated at 37° C. for 2 minutes. After addition of 5 ml of trypsin neutralization solution, the resulting cell suspension was transferred into two 15-ml Falcon tubes, and centrifuged at 200×g for 5 minutes. The supernatant was removed by aspiration, and the pelleted cell cluster was suspended in 2 ml of the medium at 4.5×10^5 cells/ml. An aliquot of the resulting cell suspension was cryopreserved, while another aliquot was cultured and subjected to measurement.
ATP secretion by human epidermal keratinocytes (hereinafter referred to as “keratinocytes”) was measured. Regarding control solutions, Krebs-Ringer HEPES supplemented with 0.2% BSA and 25 mM glucose (hereinafter also referred to as “Krebs/Iono(−)”) was used as a negative control, and a solution prepared by adding 5 μM ionomycin to this solution (hereinafter also referred to as “Krebs/Iono(+)”) was used as a positive control for ATP secretion. Ionomycin is a Ca^2+ ionophore. Addition of ionomycin to cells is known to promote influx of extracellular Ca^2+ into the cells to increase the intracellular Ca^2+ concentration, resulting in enhancement of ATP secretion. Test solutions were prepared by adding clodronate to Krebs/Iono(−) or Krebs/Iono(+) to a final concentration of 0.1 μM (hereinafter also referred to as “Clo/Iono(−)” or “Clo/Iono(+)”, respectively) (N=3).
Keratinocytes were cultured at 2.5×10^4 cells/well in a 24-well plate at 37° C. in 5% CO2 for 4 days. The medium was removed by aspiration, replaced with Krebs/Iono(−) or Clo/Iono(−), and incubated at 37° C. for 6 hours. These solutions were then removed by aspiration, and the content of each well incubated with Krebs/Iono(−) was replaced with 300 μl of a control solution (Krebs/Iono(−) or Krebs/Iono(+)), while the content of each well incubated with Clo/Iono(−) was replaced with 300 μl of a test solution (Clo/Iono(−) or Clo/Iono(+)). After further incubation at 37° C. for 20 minutes, 200 μl of the supernatant was collected. The collected supernatant was immediately treated on a heat block at 95° C. for 10 minutes, to inactivate ectonucleotidase. ATP in the supernatant was quantified using a Dojindo ATP assay kit−Luminescence (manufactured by Dojindo Laboratories).
Keratinocytes were cultured in the same manner as in Example 1, and ATP secretion from the keratinocytes was measured. Krebs/Iono(−), or a solution prepared by adding 10 μM imeglimin, 0.1 μM eicosapentaenoic acid (EPA), 1 μM EPA, or 10 μM clodronate to Krebs/Iono(−) was used (N=4).
After culturing keratinocytes, the medium was removed by aspiration, and replaced with Krebs/Iono(−), or Krebs/Iono(−) supplemented with 10 μM imeglimin, 0.1 μM EPA, 1 μM EPA, or 10 μM clodronate, followed by incubation for 6 hours. Subsequently, the solution was replaced with either a control solution (Krebs/Iono(−) or Krebs/Iono(+)) or a test solution (Krebs/Iono(+) supplemented with 10 μM imeglimin, 0.1 μM EPA, 1 μM EPA, or 10 μM clodronate), followed by incubation at 37° C. for 20 minutes and then collection of 200 μl of the supernatant. The collected supernatant was immediately treated on a heat block at 95° C. for 10 minutes to inactivate ectonucleotidase. ATP in the supernatant was quantified using a Dojindo ATP assay kit—Luminescence (manufactured by Dojindo Laboratories). […]

mouse auricle = assay: Imiquimod-induced psoriasis model, comparison with an anti-TNFα antibody (Example 19); format: in vivo; details: imeglimin 40 mg/kg oral daily or infliximab 100 μg/mouse i.v. Days 1, 3, 5
Protocol: The dorsal hair of mice was shaved and depilated (Day 0). To each of the left auricle and the depilated back of each mouse, 62.5 mg of 5% imiquimod cream (Beselna Cream 5%) was applied once daily a total of seven times (Days 1 to 7) in accordance with Example 18, to induce imiquimod-induced psoriasis (IMQ group). In the IMQ+IMG group, mice received oral administration of imeglimin (40 mg/kg) once daily (Day 1 to 7) after the imiquimod application. […] Thickness of the auricle was measured, and the degrees of erythema, desquamation, and infiltration in the affected area were rated on Days 1, 3, 5, 7, and 8 according to the PASI scoring of the DermNET Dermatology Resource (none: 0, mild: 1, moderate: 2, severe: 3, and very severe: 4). The resulting values were used to calculate the PASI score.
Further, for an auricle excised on Day 8, immunohistochemical staining was performed in the same manner as in Example 18, and auricular sections were imaged using a fluorescence microscope (BZ-X710; manufactured by Keyence Corporation).

| Compound | inhibitory activity on ATP transport [1] | also measured |
| --- | --- | --- |
| O=C(CO)[C@@H](O)[C@H](O)[C@H](O)COP(=O)(O)O [fructose-6-phosphate] | no inhibitory activity was found |  |
| CC(=O)C(=O)O [pyruvic acid] | no inhibitory activity was found | inhibition of ATP transport ([1]; up to 1 mM pyruvic acid): did not inhibit ATP transport |
| NC(=O)c1ccc[n+]([C@@H]2O[C@H](COP(=O)([O-])OP(=O)(O)OC[C@H]3O[C@@H](n4cnc5c(N)ncnc54)[C@H](O)[C@@H]3O)[C@@H](O)[C@H]2O)c1 [NAD+] | no inhibitory activity was found |  |
| O=C(O)C[C@H](O)C(=O)O [malic acid] | no inhibitory activity was found |  |
| O=C(O)CN(CCOCCOCCN(CC(=O)O)CC(=O)O)CC(=O)O [EGTA] |  | ionomycin-induced ATP secretion (LX-2 cells; 1 mM EGTA, chelating of Ca2+, N=6 (FIG. 21)): strongly inhibited |
| NCCc1c[nH]c2ccc(O)cc12 [5-HT, serotonin] |  | ATP secretion from the LX-2 cells (LX-2 cells; 10 μM serotonin (5-HT) (FIG. 25)): promoted ATP secretion |
| O=C[C@H](O)[C@@H](O)[C@H](O)[C@H](O)COP(=O)(O)O [glucose-6-phosphate] | no inhibitory activity was found |  |
| O=C(O)CC(=O)C(=O)O [oxaloacetic acid] | no inhibitory activity was found |  |
| C[C@H](O)C(=O)O [L-lactic acid] | no inhibitory activity was found |  |
| C[C@H](CCC(=O)O)C[C@H](C)C[C@H](C)C(=O)/C=C(\O)[C@H](C)C[C@H](C)C/C=C/[C@@H](C)[C@@H](O)[C@@H](C)[C@@H](O)C[C@@H]1CC[C@@](C)([C@H]2CC[C@@](C)([C@@H](C)O)O2)O1 [ionomycin] |  | ATP secretion [2]: promotes ATP secretion; secretion of ATP by the LX-2 cells over time (LX-2 cells; ionomycin, N=3 (FIG. 20)): increased secretion of ATP |
| CC(=O)SCCNC(=O)CCNC(=O)[C@H](O)C(C)(C)COP(=O)(O)OP(=O)(O)OC[C@H]1O[C@@H](n2cnc3c(N)ncnc32)[C@H](O)[C@@H]1OP(=O)(O)O [acetyl-CoA] | no inhibitory activity was found |  |
| O=C(O)CC(O)(CC(=O)O)C(=O)O [citric acid] | no inhibitory activity was found |  |
| infliximab: infliximab (manufactured by Nichi-Iko Pharmaceutical Co., Ltd.), an anti-TNFα antibody as an existing drug |  | erythema (excepted from the symptoms reduced) (mouse auricle; N=5 (FIG. 38)): except erythema; typical psoriatic symptoms induced by imiquimod, except erythema (thickness, desquamation, infiltration, PASI score) (mouse auricle; N=5 (FIGS. 37-41)): reduced |
